Assay results as given in ChEMBL document CHEMBL1122531 (J Med Chem, 1984).

Tests used:
[1] = test system: Oryctolagus cuniculus; assay: Compound was evaluated in vivo for the respiratory activity in four conscious rabbits. The percent change in respiration rate in comparison to the 10-minute period prior to the injection, dose 0.005 g/uM; type: functional
[2] = test system: Oryctolagus cuniculus; assay: Compound was evaluated in vivo for the respiratory activity in four conscious rabbits. The percent change of the respiratory volume in comparison to the 10-minute prior to the injection, dose 0.005 g/uM; type: functional
[3] = biological target: T1, Opioid receptor (Rattus norvegicus, UniProt P33533+P34975+P33535); type: cell membranes, Brain, Membrane
[4] = biological target: T1, Opioid receptor; type: cell membranes, Brain, Membrane; remark: listed apart in the source
[5] = test system: Mus musculus; assay: Compound was evaluated in vivo for its effective dose at which half of the mice were effected using Nilsen assay (NA) by administering the compound perorally (po).; type: functional
[6] = test system: Mus musculus; assay: In vivo inhibition of subcutaneously administered naloxone-elicited opioid type withdrawal jumping (IWJ) after 72 hours in physically dependent male mice (strain Fullinsdorf-Albino SPF). Dose 0.005 g/uM; type: functional; settings: sc
[7] = test system: Mus musculus; assay: Compound was evaluated in vivo for its effective dose at which half of the mice were effected using hotplate assay (HPA) by administering the compound subcutaneously.; type: functional; settings: sc
[8] = test system: Mus musculus; assay: Compound was evaluated in vivo for its effective dose at which half of the mice were effected using Nilsen assay (NA) by administering the compound Subcutaneously; type: functional; settings: sc
[9] = test system: Mus musculus; assay: Compound was evaluated in vivo for its effective dose at which half of the mice were effected using hotplate assay (HPA) by administering the compound perorally (po).; type: functional
[10] = test system: Oryctolagus cuniculus; assay: Compound was evaluated in vivo for the respiratory activity in four conscious rabbits. The percent change of the respiratory volume in comparison to the 10-minute prior to the injection, dose 0.41 g/uM; type: functional
[11] = test system: Oryctolagus cuniculus; assay: Compound was evaluated in vivo for the respiratory activity in four conscious rabbits. The percent change in respiration rate in comparison to the 10-minute period prior to the injection, dose 0.41 g/uM; type: functional
[12] = test system: Mus musculus; assay: In vivo inhibition of subcutaneously administered naloxone-elicited opioid type withdrawal jumping (IWJ) after 72 hours in physically dependent male mice (strain Fullinsdorf-Albino SPF). Dose 0.41 g/uM; type: functional; settings: sc
[13] = test system: Mus musculus; assay: Compound was evaluated in vivo for its effective dose at which half of the mice were effected using hotplate assay (HPA) by administering the compound perorally (po); type: functional
[14] = test system: Mus musculus; assay: Compound was evaluated in vivo for its effective dose at which half of the mice were effected using hotplate assay (HPA) by administering the compound subcutaneously; type: functional; settings: sc
[15] = test system: Oryctolagus cuniculus; assay: Compound was evaluated in vivo for the respiratory activity in four conscious rabbits. The percent change of the respiratory volume in comparison to the 10-minute prior to the injection, dose 0.08 kg/uM; type: functional
[16] = test system: Mus musculus; assay: In vivo inhibition of subcutaneously administered naloxone-elicited opioid type withdrawal jumping (IWJ) after 72 hours in physically dependent male mice (strain Fullinsdorf-Albino SPF), dose 0.08 kg/uM; type: functional; settings: sc
[17] = test system: Oryctolagus cuniculus; assay: Compound was evaluated in vivo for the respiratory activity in four conscious rabbits. The percent change in respiration rate in comparison to the 10-minute period prior to the injection, dose 0.08 kg/uM; type: functional
[18] = test system: Mus musculus; assay: Compound was evaluated in vivo for its effective dose at which half of the mice were effected using Nilsen assay (NA) by administering the compound perorally (po); type: functional
[19] = test system: Oryctolagus cuniculus; assay: Compound was evaluated in vivo for the respiratory activity in four conscious rabbits. The percent change of the respiratory volume in comparison to the 10-minute prior to the injection, dose 0.17 kg/uM; type: functional
[20] = test system: Mus musculus; assay: In vivo inhibition of subcutaneously administered naloxone-elicited opioid type withdrawal jumping (IWJ) after 72 hours in physically dependent male mice (strain Fullinsdorf-Albino SPF), dose 0.17 kg/uM; type: functional; settings: sc
[21] = test system: Oryctolagus cuniculus; assay: Compound was evaluated in vivo for the respiratory activity in four conscious rabbits. The percent change in respiration rate in comparison to the 10-minute period prior to the injection, dose 0.17 kg/uM; type: functional
[22] = test system: Mus musculus; assay: In vivo inhibition of subcutaneously administered naloxone-elicited opioid type withdrawal jumping (IWJ) after 72 hours in physically dependent male mice (strain Fullinsdorf-Albino SPF), dose 0.017 g/uM; type: functional; settings: sc
[23] = test system: Oryctolagus cuniculus; assay: Compound was evaluated in vivo for the respiratory activity in four conscious rabbits. The percent change of the respiratory volume in comparison to the 10-minute prior to the injection, dose 0.017 g/uM; type: functional
[24] = test system: Oryctolagus cuniculus; assay: Compound was evaluated in vivo for the respiratory activity in four conscious rabbits. The percent change in respiration rate in comparison to the 10-minute period prior to the injection, dose 0.017 g/uM; type: functional
[25] = test system: Oryctolagus cuniculus; assay: Compound was evaluated in vivo for the respiratory activity in four conscious rabbits. The percent change in respiration rate in comparison to the 10-minute period prior to the injection, dose 0.67 kg/uM; type: functional
[26] = test system: Mus musculus; assay: In vivo inhibition of subcutaneously administered naloxone-elicited opioid type withdrawal jumping (IWJ) after 72 hours in physically dependent male mice (strain Fullinsdorf-Albino SPF).; type: functional; settings: sc
[27] = test system: Oryctolagus cuniculus; assay: Compound was evaluated in vivo for the respiratory activity in four conscious rabbits. The percent change of the respiratory volume in comparison to the 10-minute prior to the injection, dose 0.67 kg/uM; type: functional
[28] = test system: Mus musculus; assay: In vivo inhibition of subcutaneously administered naloxone-elicited opioid type withdrawal jumping (IWJ) after 72 hours in physically dependent male mice (strain Fullinsdorf-Albino SPF), dose 0.18 kg/uM; type: functional; settings: sc
[29] = test system: Oryctolagus cuniculus; assay: Compound was evaluated in vivo for the respiratory activity in four conscious rabbits. The percent change in respiration rate in comparison to the 10-minute period prior to the injection, dose 0.18 kg/uM; type: functional
[30] = test system: Oryctolagus cuniculus; assay: Compound was evaluated in vivo for the respiratory activity in four conscious rabbits. The percent change of the respiratory volume in comparison to the 10-minute prior to the injection, dose 0.18 kg/uM; type: functional
[31] = test system: Oryctolagus cuniculus; assay: Compound was evaluated in vivo for the respiratory activity in four conscious rabbits. The percent change of the respiratory volume in comparison to the 10-minute prior to the injection, dose 0.03 kg/uM; type: functional
[32] = test system: Oryctolagus cuniculus; assay: Compound was evaluated in vivo for the respiratory activity in four conscious rabbits. The percent change in respiration rate in comparison to the 10-minute period prior to the injection, dose 0.03 kg/uM; type: functional
[33] = organism: Mus musculus; assay: animal or person; settings: sc, 72 h

Structure (SMILES)	IC50 [3] [nM]	IC50 [4] [nM]	ED50 [7] [µmol/kg]	ED50 [8] [µmol/kg]	ED50 [13] [µmol/kg]	ED50 [14] [µmol/kg]	ED50 [18] [µmol/kg]	also measured
Br.CO[C@@]12CCC(=O)[C@@H]3Oc4c(O)ccc5c4[C@@]31CCN(C)C2C5	0.003	0.08	0.008	0.02	–	–	–	Change [1]: -33%; Change [2]: -26%; ED50 [5]: 0.5 µmol/kg; ED50 [6]: 0.08 µmol/kg; ED50 [9]: 0.5 µmol/kg
Br.CO[C@@]12CCC(=O)[C@@H]3Oc4c(OCc5ccccc5)ccc5c4[C@@]31CCN(C)C2C5	0.8	9	2.7	–	–	–	–	Change [10]: -32%; Change [11]: -38%; ED50 [12]: 5.3 µmol/kg
CN1CC[C@]23CC(=O)CC[C@@]2(O)[C@H]1Cc1cccc(O)c13	0.2	3.4	–	–	3.5	2	–	–
COc1cccc2c1[C@]13CCN(C)[C@H](C2)[C@]1(OC)CCC(=O)C3	0.3	3.5	–	0.06	1.1	0.06	1.6	Change [15]: -64%; ED50 [16]: 2.4 µmol/kg; Change [17]: -66 µM/kg
COc1ccc2c(c1O)[C@]13CCN(C)[C@H](C2)[C@]1(OC)CCC(=O)C3	0.5	11	–	0.5	2.4	0.8	5.4	–
CO[C@@]12CCC(=O)C[C@@]13CCN(C)[C@@H]2Cc1cccc(O)c13	0.02	0.7	–	0.4	1.2	0.5	1	Change [19]: -40%; ED50 [20]: 2.9 µmol/kg; Change [21]: -32%
COc1ccc2c(c1OC)[C@]13CCN(C)[C@H](C2)[C@]1(OC)CCC(=O)C3	0.085	0.85	–	0.05	0.3	0.06	0.6	ED50 [22]: 1.6 µmol/kg; Change [23]: -48%; Change [24]: -50%
COc1ccc2c(c1OC)[C@]13CCN(C)[C@H](C2)[C@]1(O)CCC(=O)C3	0.5	1.2	–	0.3	–	0.4	–	–
CN1CC[C@]23CC(=O)CC[C@@]2(O)[C@H]1Cc1ccccc13	0.3	12	–	2	–	1.8	–	–
CO[C@@]12CCC(=O)[C@@H]3Oc4cccc5c4[C@@]31CCN(C)[C@@H]2C5	0.2	16	0.3	0.3	–	–	–	Change [25]: -75%; ED50 [5]: 4.7 µmol/kg; ED50 [26]: 14 µmol/kg; Change [27]: -68%; ED50 [9]: 2.8 µmol/kg
CN1CC[C@]23c4c5cccc4O[C@H]2C(=O)CC[C@@]3(O)[C@H]1C5	1.4	16	1.6	–	–	–	–	ED50 [9]: 31 µmol/kg
COc1cccc2c1[C@]13CCN(C)[C@H](C2)[C@]1(O)CCC(=O)C3	0.75	3.7	–	–	5	0.5	–	–
CO[C@@]12CCC(=O)C[C@@]13CCN(C)[C@@H]2Cc1ccccc13	0.2	6	–	0.2	2.2	0.1	2.3	ED50 [28]: 7 µmol/kg; Change [29]: -52%; Change [30]: -48%
CN1CC[C@]23c4c5ccc(O)c4O[C@H]2[C@@H](O)C=C[C@H]3[C@H]1C5.Cl [MORPHINE HYDROCHLORIDE]	–	–	–	–	–	–	–	Change [31]: 38.3%; Change [32]: -43%; ED50 [33]: 59 µmol/kg
CN1CC[C@]23c4c5ccc(O)c4O[C@H]2C(=O)CC[C@@]3(O)[C@H]1C5 [OXYMORPHONE]	–	–	0.3	–	–	–	–	ED50 [9]: 3 µmol/kg
